Measurements reported in paper PMC6143625, “A high throughput screen for next-generation leads targeting malaria parasite transmission” (Nature Communications, 2018).

Experiments:
[1] = test system: P. falciparum stage V male gametocytes (male gamete formation); assay: P. falciparum dual gamete formation assay (Pf DGFA), male readout (exflagellation), 48 h carry-over format; type: cell-based, Plasmodium falciparum NF54; conditions: primary screen, 2 uM, 48 h incubation, single replicate
Experimental: (§1) P. falciparum NF54 strain (originally isolated from an imported malaria case in the Netherlands in the 1980s; BEI Resources, cat. no. MRA-1000) asexual and sexual stages culture was performed as previously described. Gametocyte cultures were initiated at 1% asexual ring stage parasitaemia and 4% haematocrit in 40 ml final volume. To induce gametocyte production, complete culture medium (CM) (RPMI 1640 supplemented with 25 mM HEPES, 50 µg ml^−1 hypoxanthine, 2 g l^−1 NaHCO3 and 10% pooled human male type A+ serum) was replaced daily for 14 days without fresh erythrocyte addition. Human serum was obtained from Interstate Blood Bank, A^+ serotype; no aspirin 2 h before drawing and no antimalarials 2 weeks before drawing. On day 14 after culture induction, gametocyte production was assessed by thin smear and Giemsa staining, and exflagellation accurately counted in a haemocytometer. Gametocyte cultures with >0.2% exflagellation (compared to total erythrocyte cell number) were deemed acceptable for use in the Pf DGFA. Note, all human biological samples were sourced ethically and their research use was in accord with the terms of the informed consents under an IRB/EC approved protocol.
(§2) In screening mode, the assay was performed as described in Delves et al.[35] with a mean Z′ factor of 0.56 ± 0.14 (SD) (male) and 0.71 ± 0.17 (SD) (female). Pooled mature gametocyte cultures with the capacity to yield >0.2% exflagellation (of total cells) were diluted in CM to 14 million cells per ml and so that 700,000 cells were dispensed in 50 µl into each well of the warmed 384-well screening plates. Parasites were incubated in the plates with compounds for 48 h in a humidified chamber under 92%N2/5% CO2/3% O2 gas mix before gamete formation was triggered by addition of 10 µl per well ookinete medium (RPMI 1640 supplemented with 25 mM HEPES, 50 µg ml^−1 hypoxanthine, 2 g l^−1 NaHCO3, 100 µM xanthurenic acid) containing 0.5 µg ml^−1 anti-Pfs25 clone 4B7 (BEI Resources, cat. no. MRA-315) conjugated to the fluorophore Cy3 (GE Healthcare), and also by cooling the plate at 4 °C for 4 min and then a further 5 min at 28 °C. Exflagellation was recorded immediately by brightfield microscopy using a Nikon Ti-E widefield microscope at ×4 objective, ×1.5 zoom, recording a 10-frame video time-lapse over 2 s for each well. Afterwards, plates were incubated in the dark at 28 °C for a further 24 h to allow female gametes to maximally express Pfs25 on their surface. Female gamete formation was recorded by single-image fluorescence microscopy using the same microscope and magnification as above. Exflagellation and female gamete formation were quantified by specific algorithms designed with the open-source ICY Image Analysis software.
(§3) Assay performance statistics, such as signal to background ratio, Z′ and robust 3×SD activity cut-off were calculated using templates in ActivityBase XE (IDBS, Guilford, Surrey, UK). Hit population analysis and visualisation were conducted using Spotfire DecisionSite (Spotfire, Inc., Somerville, Massachusetts). The pIC50 (−log IC50) values were obtained using the ActivityBase XE nonlinear regression function in the full curve analysis bundle. In screening mode, the Pf DGFA achieved a mean Z′ factor of 0.56 ± 0.14 (SD) (male) and 0.71 ± 0.17 (SD) (female).

[2] = test system: P. falciparum stage V female gametocytes (female gamete formation); assay: P. falciparum dual gamete formation assay (Pf DGFA), female readout (Pfs25 expression), 48 h carry-over format; type: cell-based, Plasmodium falciparum NF54; conditions: primary screen, 2 uM, 48 h incubation, single replicate
Experimental: as §1
as §2, with “Parasites were incubated in the plates with compounds for 48 h in a humidified chamber under” left out
as §3

With NC(=O)c1ccc(N2CCCCC2)c(NC(=O)c2cc(Br)ccc2F)c1 [DDD01080647] the “%Inhibition Male @2uM” value [1] was less than 30% and the “%Inhibition Female @2uM” value [2] was 45.72%.
In the case of CCc1cnc(CN(C(C)=O)C2CCN(CCS(C)(=O)=O)C2)o1 (stereo not shown) [DDD01081064], the “%Inhibition Male @2uM” value [1] was 46.67% and the “%Inhibition Female @2uM” value [2] was less than 30%.
In the case of CCOC1CCC2(CCN(C(=O)c3csnn3)CC2)c2ccccc21 (stereo not shown) [DDD01081288], the “%Inhibition Male @2uM” value [1] was 95.81% and the “%Inhibition Female @2uM” value [2] was less than 30%.
In the case of CS(=O)(=O)N1Cc2ccnn2CC(C(=O)NCc2cccnc2)C1 (stereo not shown) [DDD01081357], the “%Inhibition Male @2uM” value [1] was 43.36% and the “%Inhibition Female @2uM” value [2] was less than 30%.
With COc1ccc2c(c1)C1(CCNCC1)CC2NC1CC1 (stereo not shown) [DDD01081368] the “%Inhibition Male @2uM” value [1] was 45.77% and the “%Inhibition Female @2uM” value [2] was less than 30%.
With O=C1CC[C@@H]2[C@@H](CCN2S(=O)(=O)C2CC2)N1CC1CC1 [DDD01081437] the “%Inhibition Male @2uM” value [1] was 31.40% and the “%Inhibition Female @2uM” value [2] was less than 30%.
In the case of c1c(CN2CCOCC2)nc2n1CCN(CC1CC1)C2 [DDD01081604], the “%Inhibition Male @2uM” value [1] was 36.99% and the “%Inhibition Female @2uM” value [2] was less than 30%.
CN(C)[C@@H]1CCN(S(C)(=O)=O)[C@H]1Cc1ccccc1 [DDD01081694] was tested, and the “%Inhibition Male @2uM” value [1] was 32.12% and the “%Inhibition Female @2uM” value [2] was less than 30%.
With CCc1cnc(N2CC[C@H]3[C@@H]2CCC(=O)N3c2ccccc2)nc1 [DDD01081766] the “%Inhibition Male @2uM” value [1] was 33.06% and the “%Inhibition Female @2uM” value [2] was less than 30%.
In the case of CC(C)n1nc(CN2CCCC2=O)c2c1CN(C(=O)c1ccc[nH]1)C2 [DDD01081769], the “%Inhibition Male @2uM” value [1] was less than 30% and the “%Inhibition Female @2uM” value [2] was 30.49%.
O=C(c1ccoc1)N1CCOC2(COCCN(CC3CC3)C2)C1 (stereo not shown) [DDD01082156] was tested, and the “%Inhibition Male @2uM” value [1] was less than 30% and the “%Inhibition Female @2uM” value [2] was 30.05%.
For CC(C)N(C)Cc1cncc2c1CCN(CC(=O)N(C)C)C2 [DDD01082190], the “%Inhibition Male @2uM” value [1] was less than 30% and the “%Inhibition Female @2uM” value [2] was 42.20%.
With CC1c2ncc(Cn3cccn3)n2CCN1c1ncccn1 (stereo not shown) [DDD01082239] the “%Inhibition Male @2uM” value [1] was less than 30% and the “%Inhibition Female @2uM” value [2] was 34.70%.
For CCCN1CCC(c2nc3ccc(-c4cccc(OC)c4)cn3n2)CC1 [DDD01082327], the “%Inhibition Male @2uM” value [1] was less than 30% and the “%Inhibition Female @2uM” value [2] was 35.67%.
In the case of CCOCC(=O)N1CCc2nc(C)nc(NC(C)C)c2CC1 [DDD01082409], the “%Inhibition Male @2uM” value [1] was 45.90% and the “%Inhibition Female @2uM” value [2] was less than 30%.
For O=C(NC1CC1)[C@H]1CC[C@@H]2[C@@H](CCN2CCOCc2ccccc2)O1 [DDD01082763], the “%Inhibition Male @2uM” value [1] was 87.75% and the “%Inhibition Female @2uM” value [2] was less than 30%.
For Cn1cncc1C(=O)N1C[C@@H]2CCN(c3cnccn3)C[C@@H]2C1 [DDD01082777], the “%Inhibition Male @2uM” value [1] was less than 30% and the “%Inhibition Female @2uM” value [2] was 40.85%.
In the case of O=S(=O)(c1ccccc1)N1CCC2(CCCN2Cc2ccccc2Cl)C1 (stereo not shown) [DDD01083172], the “%Inhibition Male @2uM” value [1] was 37.32% and the “%Inhibition Female @2uM” value [2] was less than 30%.
For CS(=O)(=O)NCc1nnc2n1CCN(Cc1cccnc1)C2 [DDD01083181], the “%Inhibition Male @2uM” value [1] was 31.87% and the “%Inhibition Female @2uM” value [2] was less than 30%.
For COc1ccc(CN2CC[C@@H](O)[C@@H]2Cc2cnn(C)c2)cc1 [DDD01083182], the “%Inhibition Male @2uM” value [1] was 38.13% and the “%Inhibition Female @2uM” value [2] was less than 30%.
In the case of CC1=N[C@@]2(CC[C@@H]3CN(S(=O)(=O)CC(C)C)C[C@@H]32)C(=O)N1CC1CC1 [DDD01083262], the “%Inhibition Male @2uM” value [1] was less than 30% and the “%Inhibition Female @2uM” value [2] was 94.03%.
CN(C)C(=O)N1CCCC2(CCN(c3ccsc3)C2=O)C1 (stereo not shown) [DDD01083808] was tested, and the “%Inhibition Male @2uM” value [1] was less than 30% and the “%Inhibition Female @2uM” value [2] was 43.49%.
For CN(C)[C@@H]1CCN(C(=O)Cc2cccs2)[C@H]1Cc1ccncc1 [DDD01083822], the “%Inhibition Male @2uM” value [1] was 35.35% and the “%Inhibition Female @2uM” value [2] was less than 30%.
In the case of O=C(c1ccnnc1)N1C[C@H](OCc2ccccn2)[C@H]2COC[C@H]21 [DDD01084503], the “%Inhibition Male @2uM” value [1] was less than 30% and the “%Inhibition Female @2uM” value [2] was 32.17%.
CN(C)CCN1CCN(C)c2nc(-c3ccccc3)ncc2C1=O [DDD01235874] was tested, and the “%Inhibition Male @2uM” value [1] was 34.25% and the “%Inhibition Female @2uM” value [2] was less than 30%.
CC(C)[C@H](NS(C)(=O)=O)C(=O)NCc1cc(-c2ccco2)n[nH]1 [DDD01235905] was tested, and the “%Inhibition Male @2uM” value [1] was 31.18% and the “%Inhibition Female @2uM” value [2] was less than 30%.
CC(C)[C@H](NS(C)(=O)=O)C(=O)NCc1cc(-c2ccccc2)n[nH]1 [DDD01235932] was tested, and the “%Inhibition Male @2uM” value [1] was 32.71% and the “%Inhibition Female @2uM” value [2] was less than 30%.
CC(C)(C)Nc1nc(-c2cccnc2)c(-c2ccnc(NCCO)n2)s1 [DDD01235967] was tested, and the “%Inhibition Male @2uM” value [1] was 38.85% and the “%Inhibition Female @2uM” value [2] was less than 30%.
With CCOCC(=O)N1CCC(c2nccn2Cc2cscn2)CC1 [DDD01243474] the “%Inhibition Male @2uM” value [1] was 109.47% and the “%Inhibition Female @2uM” value [2] was less than 30%.
In the case of O=C(O)CCc1cc2n(n1)CCCN(C(=O)c1ccc(F)cc1F)C2 [DDD01243729], the “%Inhibition Male @2uM” value [1] was 76.28% and the “%Inhibition Female @2uM” value [2] was less than 30%.
For NCC1CCCN(c2nc(-c3ccccc3)nc3c2CCNCC3)C1 (stereo not shown) [DDD01244614], the “%Inhibition Male @2uM” value [1] was 71.27% and the “%Inhibition Female @2uM” value [2] was 30.18%.
For Cn1nnnc1SCCNC(=O)C1CCN(C(=O)C2CC2)CC1 [DDD01244691], the “%Inhibition Male @2uM” value [1] was 73.04% and the “%Inhibition Female @2uM” value [2] was less than 30%.
For CCC(C(=O)N(C)C)N1CCC(c2nccn2Cc2cscn2)CC1 (stereo not shown) [DDD01244731], the “%Inhibition Male @2uM” value [1] was 126.32% and the “%Inhibition Female @2uM” value [2] was less than 30%.
In the case of CN(C)c1ccc(C(=O)N2CCCN(C3CCCCC3)CC2)cn1 [DDD01244855], the “%Inhibition Male @2uM” value [1] was less than 30% and the “%Inhibition Female @2uM” value [2] was 30.12%.
For COC(=O)c1ccc(C(=O)N2CCCC(Nc3ccc(F)cc3)C2)cc1 (stereo not shown) [DDD01244904], the “%Inhibition Male @2uM” value [1] was 109.47% and the “%Inhibition Female @2uM” value [2] was less than 30%.
With CN(Cc1cnn(C)c1)c1nccc(-c2cc(C(=O)O)ccn2)n1 [DDD01245058] the “%Inhibition Male @2uM” value [1] was less than 30% and the “%Inhibition Female @2uM” value [2] was 33.22%.
Cc1nc[nH]c1CN1CCn2nc(CN3Cc4ccccc4C3)cc2C1 [DDD01245298] was tested, and the “%Inhibition Male @2uM” value [1] was 30.45% and the “%Inhibition Female @2uM” value [2] was less than 30%.
COc1cccc2c1OCC(C(=O)N1CCN(CCS(C)(=O)=O)CC1)C2 (stereo not shown) [DDD01245746] was tested, and the “%Inhibition Male @2uM” value [1] was 56.62% and the “%Inhibition Female @2uM” value [2] was less than 30%.
CCNC(=O)[C@@H]1C[C@H](NC(=O)c2cncnc2C)CN1Cc1ccsc1 [DDD01245940] was tested, and the “%Inhibition Male @2uM” value [1] was less than 30% and the “%Inhibition Female @2uM” value [2] was 96.27%.
With Cc1cccc(=O)n1CCCNc1nc(N(C)C)nc2c1CCNC2 [DDD01245962] the “%Inhibition Male @2uM” value [1] was 35.31% and the “%Inhibition Female @2uM” value [2] was less than 30%.
For CN(C)Cc1nnc(C2CCN(c3ncccc3Cl)CC2)n1C1CC1 [DDD01246077], the “%Inhibition Male @2uM” value [1] was 30.72% and the “%Inhibition Female @2uM” value [2] was less than 30%.
In the case of COCCN(C)CCN1CC2(CCN(C3CCOC3)CC2)OC1=O (stereo not shown) [DDD01246090], the “%Inhibition Male @2uM” value [1] was 126.32% and the “%Inhibition Female @2uM” value [2] was less than 30%.
COc1cccc2c1OCC(C(=O)N1Cc3ccccc3C1)C2 (stereo not shown) [DDD01246187] was tested, and the “%Inhibition Male @2uM” value [1] was 112.07% and the “%Inhibition Female @2uM” value [2] was less than 30%.
In the case of O=C(c1ccccn1)N1C[C@H]2CC[C@@H](C1)N(C(=O)CCN1CCCC1)C2 [DDD01246765], the “%Inhibition Male @2uM” value [1] was 99.89% and the “%Inhibition Female @2uM” value [2] was less than 30%.
